Drawing on PubChem BioAssay (NCI), this text covers TGI and GI50 for one molecule.

The structures appear in SMILES notation.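 Compound exposure: 48 hours, 5 concentrations, 96-well plates. Here, GI50 denotes the concentration required for 50% inhibition of growth. TGI: concentration producing complete growth inhibition.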

Test systems include NCI/ADR-RES ovarian; NCI-H226 lung; NCI-H522 lung; RXF 393 renal.
What all share (assay): inhibition of tumour cell growth, NCI panel, 48 h

Consider `CCCC1CCC(O)(C(C)(O)C(=O)NC2C(=O)N3NCCCC3C(=O)N(O)C(C)C(=O)N3NCCCC3C(=O)N3NCC(O)CC3C(=O)NC(C)C(=O)OC2C(C)C)OC1CC` (configuration not stated), for which the TGI is more than 5.53 µM in the test on NCI/ADR-RES ovarian, more than 25 µM with NCI-H226 lung, more than 25 µM in the test on NCI-H522 lung and more than 25 µM in the test on RXF 393 renal. Also, the GI50 in the test with NCI-H226 lung, in the test with NCI-H522 lung and in the test on RXF 393 renal was more than 25 µM in each case.
